{
  "source": "patent US20240050033A1",
  "about": "“PERFUSION DEVICE FOR EVALUATING BLOOD PARAMETERS” (SEDICIDODICI S.R.L., priority 2020, published 2024)",
  "key": {"fibrin": {"system": "fibrin", "assay": "ex-vivo dynamic evaluation of fibrin formation in a whole-blood sample flowing through a perfusion chamber (fluorescence imaging)", "format": "cell-based, human", "details": "mean value, blood of subjects under the therapy; 8-bit acquisition system", "excerpt": "(§1) The present invention firstly relates to a method for the dynamic “ex-vivo” evaluation of the coagulation process in a patient's blood sample, characterized in that such a method comprises the simultaneous determination on the same blood sample of both the time, quantity and speed of platelet aggregate formation and of fibrin formation time, quantity and speed.\nAccording to some embodiments, the method of the invention comprises the following steps: • a) providing a whole-blood sample taken from a subject and added with an anti-coagulant substance; • b) treating the blood sample of step a) with a solution consisting of fluorescent probes for marking platelets and fibrin capable of binding more or less specifically to platelets and fibrin and emitting fluorescent light on two different emission frequencies and of a recalcification solution of the blood sample. The two aforesaid solutions can also be combined in a single solution or single reagent; • c) introducing said recalcified blood sample into an analytical device having at least one perfusion chamber, in which at least one wall consists of a transparent material comprising a cytoadhesive substance, the blood sample being made to flow into the perfusion chamber in known and measurable flow conditions; • d) during the blood flow in the perfusion chamber, alternately acquiring at least two series of fluorescence images, so that at least one series of fluorescence images is acquired at an emission wavelength characteristic of the fluorescent probe for platelets and at least one other series of fluorescence images is acquired at another emission wavelength characteristic of the fluorescent probe for fibrin; • e) binarizing the pixels of the acquired images for the platelets and for the fibrin, so as to generate a first curve of area covered by illuminated pixels vs. time (t) for the formation of a platelet aggregate and a second curve of area covered by illuminated pixels vs. time for the fibrin formation; • f) generating a first curve of average fluorescence intensity vs. time for the formation of the platelet aggregate and a second curve of average fluorescence intensity vs. time for the fibrin formation; • in which the method comprises at least one of the following steps: • g) generating a first integrated density curve defined as the product of area and fluorescence intensity vs. time for the formation of the platelet aggregate and a second integrated density curve defined as the product of area and fluorescence intensity vs. time for the fibrin formation; • h) generating a curve of particle number vs. time, in which the number of particles is given by the number of platelet aggregates consisting of more than 2 illuminated pixels; • i) generating a curve of particle size vs. time, in which the particle size is given by the average size of the platelet aggregates consisting of more than 2 illuminated pixels; • j) generating values of maximum slope, defined as the relative maximum points of the first derivative function calculated for the curves of the parameter obtained in said at least one step e), f), g), h) and i); • k) generating values of maximum acceleration, defined as the relative maximum points of the second derivative function calculated for the curves of the parameter obtained in said at least one step e), f), g), h) and i); • l) generating values of F/P ratio, defined as the ratio of the AUCs of fibrin to the AUCs of the platelets of the parameter obtained in said at least one step e), f) and g); • the method further comprising the steps of: • m) generating a lag time value representing the fibrin formation time defined as the time corresponding to the first occurrence of five consecutive images in which the value of the measured area related to fibrin is >1% of the maximum peak value of the curve; • n) generating AUC (Area Under the Curve) values given by the area under the curve of each parameter obtained in steps e), f), g), h) and i). […]"}, "platelets": {"system": "platelets", "assay": "ex-vivo dynamic evaluation of platelet aggregate formation in a whole-blood sample flowing through a perfusion chamber (fluorescence imaging)", "format": "cell-based, human", "details": "mean value, blood of subjects under the therapy; 8-bit acquisition system", "excerpt": "as §1\nAccording to some embodiments, the method of the invention comprises the following steps: • a) providing a whole-blood sample taken from a subject and added with an anti-coagulant substance; • b) treating the blood sample of step a) with a solution consisting of fluorescent probes for marking platelets and fibrin capable of binding more or less specifically to platelets and fibrin and emitting fluorescent light on two different emission frequencies and of a recalcification solution of the blood sample. […]"}},
  "data": [
    {"smiles": "CC(=O)Oc1ccccc1C(=O)O", "note": "[ASA, acetylsalicylic acid]", "values": [
      {"measurement": "F/P Area (AUC Area ratio of fibrin to platelets)", "setting": "fibrin", "result": 1.0},
      {"measurement": "F/P ID (AUC ID ratio of fibrin to platelets)", "setting": "fibrin", "result": 2.2},
      {"measurement": "F/P MGV (AUC MGV ratio of fibrin to platelets)", "setting": "fibrin", "result": 1.2},
      {"measurement": "Fibrin AUC Area (area under the curve of the area curve)", "setting": "fibrin", "result": "3.0 ×10^7"},
      {"measurement": "Fibrin AUC ID (area under the curve of the integrated density curve)", "setting": "fibrin", "result": "4.3 ×10^9"},
      {"measurement": "Fibrin AUC MGV (area under the curve of the fluorescence intensity curve)", "setting": "fibrin", "result": "2.0 ×10^4"},
      {"measurement": "Lag Time (fibrin formation time)", "setting": "fibrin", "result": 267.5, "unit": "s"},
      {"measurement": "Platelets AUC Area (area under the curve of the area curve)", "setting": "platelets", "result": "3.4 ×10^7"},
      {"measurement": "Platelets AUC ID (area under the curve of the integrated density curve)", "setting": "platelets", "result": "3.0 ×10^9"},
      {"measurement": "Platelets AUC MGV (area under the curve of the fluorescence intensity curve)", "setting": "platelets", "result": "2.0 ×10^4"}
    ]}
  ]
}
